Measured values taken from publication PMC9267128, “New 2-[(4-Amino-6-N-substituted-1,3,5-triazin-2-yl)methylthio]-N-(imidazolidin-2-ylidene)-4-chloro-5-methylbenzenesulfonamide Derivatives, Design, Synthesis and Anticancer Evaluation” (International Journal of Molecular Sciences, 2022).

Tests used:
MDM2-p53 interactions = assay: Western blot of MDM2 and p53 protein levels in MCF-7 cells; format: cell-based, human; settings: 4 µM and 10 µM, 24-h incubation
Experimental: Thus, the effects of the examined compounds on the inhibition of MDM2-p53 interactions were examined. MDM2 and p53 protein levels were determined with Western blot analysis after the treatment of MCF-7 cells with compounds selected for their high selectivity index (48, 62, 134, 138, and 140). Compounds were examined at different concentrations (4 µM and 10 µM) following a 24-h incubation (Figure 7).
Proteins were transferred to an Immobilon-P PVDF membrane (Merck Millipore, Burlington, MA, USA). The membranes were incubated for 1 h using 5% low-fat milk solution in 1× TBS (50 mM Tris-Cl, pH 7.5, 150 mM NaCl) as a blocking buffer and then overnight at 4 °C in the same blocking solution containing one of the following antibodies: anti-MDM2 (rabbit, Sigma-Aldrich AB-166, Burlington, MA, USA), anti-p53 (rabbit, Sigma-Aldrich S15) or α-tubulin (rabbit, 11H10, Cell Signaling, Danvers, MA, USA). After washing (3 × 10 min in TBS), membranes were incubated for 2 h in room temperature with the adequate HRP-conjugated secondary antibody: goat anti-rabbit IgG (1:5000, Abcam, Cambridge, UK; cat. 97051). Membranes were developed using an HRP detection kit WesternBright Quantum (Advansta, San Jose, CA, USA; cat. K-12042).

[1] = test system: T47D (breast cancer cell line); assay: MTT assay, mutant p53 breast cancer cells T47D; format: cell-based; settings: Homo sapiens, T47D, 72 h of incubation
Experimental: (§1) Thus, the ability of the selected compounds to exert cytotoxic activity toward cell lines harboring mutant p53 was examined. Compounds displaying a high selectivity index (Table 6) were selected for the analysis of their activity toward ovarian and breast cancer cells with wild-type p53 (A2780, MCF-7) and mutant p53 (SKOV-3, T47D).
(§2) Cell viability was examined using the MTT [3-(4,5-dimethylthiazol-2-yl)-2,5-diphenyltetrazolium bromide] assay. Cells were seeded in 96-well plates at a density of 3 × 10^3 cells/well and treated for 72 h with the tested compounds in the concentration range of 1–100 µM. Then, MTT (0.5 mg/mL) was added to the medium and cells were further incubated for 2 h at 37 °C. In the next stage, cells were lysed with DMSO and the absorbance of the formazan solution was measured at 550 nm with a plate reader (1420 multilabel counter, Victor, Jügesheim, Germany). The experiment was performed in triplicate. Values are expressed as the mean ± SD of at least three independent experiments. Cisplatin was used as a positive control.
(§3) Compounds 48, 62, 134, 138 and 140 were further examined toward MCF7 (breast cancer cell line, ATCC, HTB-22), T47D (breast cancer cell line, DSMZ ACC 739), A2780 (ovarian carcinoma cell line, ECACC, 93112519), and SKOV3 (ovarian carcinoma cell line, ATCC, HTB-77) cells. Cells were grown in Dulbecco’s Modified Eagle Medium (DMEM) supplemented with 10% fetal bovine serum (Thermo Fisher Scientific).

[2] = test system: SKOV3 (ovarian carcinoma cell line); assay: MTT assay, mutant p53 ovarian cancer cells SKOV-3; format: cell-based; settings: Homo sapiens, SK-OV-3, 72 h of incubation
Experimental: as §1, §2, §3

MCF-7 cells = assay: Cell cycle analysis by flow cytometry (PI staining) in MCF-7 cells; format: cell-based, human; settings: 48 h; for G0/G1 phase population of the cell cycle: MCF-7, 10 µM; for sub-G1 population of the cell cycle: MCF-7, 5, 10, 25 µM
Experimental: P53 controls cell proliferation through the regulation of the cell cycle. In order to determine p53-independent cell cycle arrest, the influence of selected compounds on the cell cycle distribution in MCF-7 cells was analyzed. Cells were treated with a concentration range of two selected compounds (140 and 48) for 48 h. Cell cycle distribution was analyzed with flow cytometry. […] Compound 140 at the lower concentration of 10 µM increased the G0/G1 population, whereas at the higher examined concentration of 25 µM, an increase in the G2/M phase of the cell cycle was observed.
Cell cycle distribution was analyzed with flow cytometry analysis with PI staining. MCF-7 cells were treated with compounds 48 and 140 (5, 10, 25 µM) for 48 h. Following treatment, the cells were collected and fixed in cold 70% ethanol for 24 h. The fixed cells were washed with PBS and incubated with 100 µg/mL RNAse (Invitrogen, Germany) and stained with 10 µg/mL PI (Invitrogen, Germany) for 30 min at RT. A total of 10^4 cells were examined with a FACSCalibur cytometer (BD) and data was analyzed with Flowing software (version 2.5).

T47D cells = assay: Apoptosis analysis (Annexin V-PE/7-AAD flow cytometry) in T47D cells; format: cell-based; settings: T47D (mutant p53), 5, 10 and 25 µM, 72 h
Experimental: Since the examined compounds exerted cytotoxic activity toward cell lines harboring mutant p53, the ability of compounds 140 and 48 to induce apoptosis in T47D cells with mutant p53 was examined. […] Cell death was induced to a similar extent in cells harboring wild-type and mutant p53 (Figure 10).
Levels of apoptosis were measured by flow cytometry using the Annexin V-PE Apoptosis Detection Kit I (BD Biosciences, Belgium) according to the manufacturer’s instructions. Apoptosis was assessed after a 72 h treatment of MCF7 and T47D cells with compounds 48 and 140 in the concentrations of 5, 10 and 25 µM. Proceeding cell treatment, cells were collected, washed with PBS and stained with Annexin V-phycoerythrin (PE) and 7-amino-actinomycin (7-AAD) in Annexin V binding buffer for 15 min at RT in the dark. After staining, cells were diluted in Annexin V binding buffer and analyzed on a BD FACSCalibur flow cytometer (BD Biosciences). At total of 10^4 cells were analyzed from each sample and data were analyzed with Flowing software (version 2.5).

[3] = test system: MCF7 (breast cancer cell line, ATCC, HTB-22); assay: MTT assay, wild-type p53 breast cancer cells MCF-7 (Table 11); format: cell-based, human; settings: Homo sapiens, MCF7; 72 h of incubation, wild-type p53, second determination
Experimental: as §1, §2, §3

MCF-7 (breast cancer) = assay: MTT cell viability assay, MCF-7; format: cell-based, human; settings: for IC50: Homo sapiens, MCF7, 72 h, MTT assay, 72 h of incubation; for Selectivity Index (SI) MCF-7: IC50 value toward HaCaT cells/IC50 value toward MCF-7
Method in brief: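 Cells in DMEM with 10% FBS, 3 × 10^3 per well, exposed to compounds at 1–100 µM for 72 h at 37 °C. MTT at 0.5 mg/mL for 2 h, formazan dissolved in DMSO and read at 550 nm. Mean ± SD of at least three independent experiments, each in triplicate.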

Row | IC50 [1] [µM] | IC50 [2] [µM] | IC50 [3] [µM] | IC50 (MCF-7 (breast cancer)) [µM] | Compound | MDM2 and p53 protein levels (MDM2-p53 interactions) | G0/G1 phase population of the cell cycle (MCF-7 cells) | sub-G1 population of the cell cycle (MCF-7 cells) | apoptotic cells (Annexin V-PE) (T47D cells) | Selectivity Index (SI) MCF-7 (MCF-7 (breast cancer)) | G2/M phase population of the cell cycle (MCF-7 cells; MCF-7, 25 µM)
1 | 4.8 ± 0.1 | 8.1 ± 0.1 | 7.8 ± 0.1 | 7 ± 0.2 | Cc1cc(S(=O)(=O)N=C2NCCN2Cc2ccccc2)c(SCc2nc(N)nc(N3CCc4ccccc43)n2)cc1Cl [Compound 48] | no changes | significant increase | concentration-dependent increase | concentration-dependent increase | 4.7 | 
2 | 5.3 ± 0.1 | 6.6 ± 0.1 | 6.9 ± 0.1 | 10 ± 0.2 | Cc1cc(S(=O)(=O)N=C2NCCN2Cc2ccc(C(F)(F)F)cc2)c(SCc2nc(N)nc(N3CCN(Cc4ccccc4)CC3)n2)cc1Cl [Compound 140] | no changes | increased | concentration-dependent increase | concentration-dependent increase | 2.2 | increase
